Laboratory results published in patent US20080038374A1, “New Use” (Lipopeptide AB, priority 2004, published 2008).
Values joined by “and” are separate entries in the source; they are usually repeats but may differ in a detail not shown here. Identical values can stand only once.

Experiments:
hCAP18 [1] = assay: hCAP18/LL-37 expression in skin of healthy volunteers after topical application; assay type: in vivo, human; conditions: 0.002% solution topical, 4 days, three healthy volunteers
Description: To assay whether 1,25-(OH)2-D3 stimulated hCAP18 expression in vivo, we applied 1,25-(OH)2D3 to the skin of three healthy individuals.
A stock solution of 4 mM 1,25-dihydroxyvitamin D3 in isopropanol was diluted in ethanol:propylene glycol [70:30] to a final vitamin D concentration of 0.002%. The vehicle containing ethanol 96% and propylene glycol [70:30] with 0.5 mg/ml BHT (butylated hydroxy toluene) served as control. In a room with dim light, the vitamin D and the control were locally applied to the skin (the right and left upper arm respectively) of three healthy volunteers. The test area of 2×2.5 cm on each arm was cleaned with saline solution (NaCl 0.9) before application. Evaporation time for the solutions of vitamin D and the vehicle varied between 8 and 15 minutes. The tested area was then covered with plastic film and band-aid (Gladpack, Melolin and Mefix). After 4 days the band-aid and the plastic film was removed and the test area was rapidly cleaned with 40% ethanol. Punch biopsies (4 mm) were obtained from the test area (after infiltration anesthesia with 2-3 ml Xylocaln with epinefrin) and were frozen instantly. […] Protein concentrations were measured by Protein Assay Kit (Bio-Rad Laboratories, Hercules Calif.) based on the Bradford method (Bradford, 1976) and samples were diluted to a final protein concentration of 1 mg per ml. […]

dermatitis = conditions: topical, 0.03-1.0 μg/g of composition; type of dermatitis not stated; cited from earlier work
hCAP18 [2] = assay: hCAP18 mRNA in skin of atopic dermatitis patients, Real-Time PCR; assay type: in vivo, human; set-up: hCAP18 mRNA, Non-lesional skin, Treated / hCAP18 mRNA, Lesional skin, Treated: unit not given here; conditions: 0.002% topical, 4 days, one patient per row
Description: To assay whether 1,25-(OH)2-D3 stimulated hCAP18 expression in atopic dermatitis, we applied 1,25-(OH)2-D3 on the skin of four individuals, two females and two men, with active atopic dermatitis. The patients had suffered from the eczema for 11-30 years. The diagnosis was made by a dermatologist. A stock solution of 4 mM 1,25-(OH)2-D3 in isopropanol was diluted in ethanol:propylene glycol (70:30) to a final concentration of 0.002%. To prevent deactivation of 1,25-(OH)2-D3, the procedure was performed in a room with dim light. The 1,25-(OH)2-D3 were locally applied on lesional and non-lesional skin area of patients. The skin surface was cleaned with saline solution (NaCl 0.9) before application. The treated skin area was measured to 2×2.25 cm. Evaporation time for the solutions of 1,25-(OH)2-D3 varied between 8 and 15 minutes. The skin area was then covered with plastic film and band-aid (Quickpack: Haushalt und Hygiene GmbH, Renningen, Germany; Melolin: Smith and Nephew, Hull, UK; Mefix: Molnlycke A B, Gothenburg, Sweden). After 4 days the band-aid and the plastic film were removed and the skin areas were rapidly cleaned with 40% ethanol. Punch biopsies (4 mm) were obtained from the treated skin areas (after infiltration anesthesia with 2-3 ml Xylocaln with epinephrin) and frozen instantly. On the first day, control biopsies were also obtained from non-treated lesional and non-lesional skin and the tissues were snap-frozen as described. RNA was extracted and hCAP18 mRNA expression determined by Real-Time PCR as described above in Example 1.

hCAP18 promoter = assay: Stimulation of the hCAP18 promoter at different concentrations (FIG. 4); assay type: cell-based, human; conditions: tested at 1, 10, 100 and 1000 nM
Description: To assess whether physiological levels were sufficient to induce the stimulation of the hCAP18 promoter, the study was performed at the different concentrations 1, 10, 100 and 1000 nM of 1,25-(OH)2-D3 and 25-OH-D3 (FIG. 4). […] The physiologic serum concentration of 25-OH-vitamin D3 is between 20 nM and 125 nM, whereas the 1,25-(OH)2-D3 is present in pM concentration. A dosage form of a vitamin D compound for topical administration includes for instance about 1-100, preferably 5-50 μg vitamin D compound per gram composition.

hCAP18 [3] = conditions: keratinocytes and leukocytes in vitro; cited from earlier work
hCAP18/LL-37 = assay: hCAP18 and LL-37 protein in acute wounds, Western blot; assay type: in vivo, human
Excerpt: (§1) The investigation was non-randomized, single blinded including four females and five males, age 22-30 years. Only fair skinned, young and healthy individuals were included and the tissue was obtained from the same body location in a non-sun exposed area. Each individual obtained 3 wounds in the left and the right inguinal region, respectively. The topical treatment with vitamin D was applied on one side and the control treatment on the contra lateral side. To each of the wounds on one side, 25 μg calcipotriol in 0.5 g ointment (Daivonex, LEO Pharma, Malmo, Sweden) was applied to a total test area of 2×2.25 cm, including one wound with surrounding intact skin. The control wounds in the opposite inguinal region were treated with vaseline (ACO, Stockholm, Sweden). All wounds were covered with inert dressing (Melolin, Smith and Nephew, Hull, U K; Mefix, Molnlycke A B, Gothenburg, Sweden; Tegaderm, 3M Health Care, St. Paul, USA). After 12 hours the dressing was changed and the treatment was repeated. In the first four individuals investigated the bandage was removed at 24 hours and the wounds were excised with a 6 mm biopsy punch and snap frozen. […]
Protein was calculated from frozen biopsies from patients (n=5) cut in 50 μm sections and homogenized. […] Protein concentrations were measured by Protein Assay Kit (Bio-Rad Laboratories, Hercules, USA) based on the Bradford method (Bradford 1976). […]

hCAP18 [4] = assay: hCAP18 mRNA in acute surgical wounds of healthy volunteers, Real-Time RT-PCR; assay type: in vivo, human; conditions: topical, 24 h, nine probands, relative to vaseline control wound
Description: To assess whether treatment with a vitamin D compound can further enhance the up-regulation of hCAP18 during acute skin injury, fresh surgical wounds in healthy volunteers (n=9) were treated with vitamin D ointment.
as §1, with “repeated.” for “repeated. In the first four individuals investigated the bandage was removed at 24 hours and the wounds were excised with a 6 mm biopsy punch and snap frozen.”
Expression of hCAP18 mRNA was quantified by Real-Time PCR, as described in Example 1. […]

C=C1/C(=C\C=C2/CCC[C@]3(C)[C@@H]([C@H](C)CCCC(C)(C)O)CC[C@@H]23)C[C@@H](O)C[C@@H]1O [1,25-(OH)2-D3, 1,25-dihydroxy-cholecalciferol]
expression of hCAP18 and production of LL-37 in human skin in vivo (hCAP18 [1]): Up-Regulates
effect on dermatitis (dermatitis): marked effect
Increase (treated/untreated), Lesional skin (hCAP18 [2]; lesional skin): 5638% and 79756% and 977% and 220%
hCAP18 mRNA, Lesional skin, Treated (hCAP18 [2]; lesional skin): 1093 and 539 and 64 and 29
Increase (treated/untreated), Non-lesional skin (hCAP18 [2]; non-lesional skin): 13104% and 520% and 841% and 459%
hCAP18 mRNA, Non-lesional skin, Treated (hCAP18 [2]; non-lesional skin): 739.4 and 24.8 and 24.2 and 8.1
level down to which a substantial portion of stimulation remained (hCAP18 promoter): 10 nM
expression of hCAP18 (hCAP18 [3]): directly induces

C=C1/C(=C\C=C2/CCC[C@]3(C)[C@@H]([C@H](C)/C=C/[C@@H](O)C4CC4)CC[C@@H]23)C[C@@H](O)C[C@@H]1O [calcipotriol]
immunoreactive bands of the processed peptide LL-37 versus control wounds (hCAP18/LL-37): in all three individuals, stronger immunoreactive bands
immunoreactive bands of the 18 kDa hCAP18 holoprotein versus control wounds (hCAP18/LL-37; 24 and 48 hours, five individuals): three of the five individuals investigated demonstrated stronger immunoreactive bands
up-regulation of hCAP18 mRNA in acute wounds (hCAP18 [4]): enhances the up-regulation of hCAP18 mRNA
